From patent US7138361B2, “Herbicidal heterocycles” (E. I. du Pont de Nemours and Company, priority 2000, dated 2006)

How the values were obtained:
Format in all cases: in vivo
[1] = tested on: barnyardgrass (Echinochloa crus-galli); assay: Test B preemergence; details: scale 0 to 100, 0 no effect, 100 complete control
How it was run: (§1)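 Ratings on a 0 to 100 visual scale (100 complete control) compare treated plants with controls 13 to 15 days after application. Treatments were pre- or postemergence sprays of compound in non-phytotoxic solvent with surfactant.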

[2] = tested on: giant foxtail (Setaria faberii); assay: Test B preemergence; details: scale 0 to 100, 0 no effect, 100 complete control
How it was run: as §1

[3] = tested on: morning glory (Ipomoea hederacea); assay: Test B preemergence; details: Preemergence, Rate 500 g/ha; scale 0 to 100, 0 no effect, 100 complete control
How it was run: as §1

[4] = tested on: pigweed (Amaranthus retroflexus); assay: Test B preemergence; details: scale 0 to 100, 0 no effect, 100 complete control
How it was run: as §1

[5] = tested on: Surinam grass (Brachiaria decumbens); assay: Test B preemergence; details: scale 0 to 100, 0 no effect, 100 complete control
How it was run: as §1

corn (Zea mays) [6] = assay: Test B preemergence; details: scale 0 to 100, 0 no effect, 100 complete control
How it was run: as §1

[7] = tested on: velvetleaf (Abutilon theophrasti); assay: Test B preemergence; details: Preemergence, Rate 500 g/ha; scale 0 to 100, 0 no effect, 100 complete control
How it was run: as §1

[8] = tested on: cocklebur (Xanthium strumarium); assay: Test B preemergence; details: Preemergence, Rate 500 g/ha; scale 0 to 100, 0 no effect, 100 complete control
How it was run: as §1

[9] = tested on: crabgrass (Digitaria sanguinalis); assay: Test B preemergence; details: scale 0 to 100, 0 no effect, 100 complete control
How it was run: as §1

rice (Oryza saliva) [10] = assay: Test B preemergence; details: scale 0 to 100, 0 no effect, 100 complete control
How it was run: as §1

[11] = tested on: lambsquarters (Chenopodium album); assay: Test B preemergence; details: Preemergence, Rate 500 g/ha; scale 0 to 100, 0 no effect, 100 complete control
How it was run: as §1

[12] = tested on: barnyardgrass (Echinochloa crus-galli); assay: Test C flooded paddy test
How it was run: (§2)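 Visual ratings (0 = no effect, 100 = complete control) were made 12–14 days after treatment, relative to greenhouse controls. Plants in the flooded paddy test were rice, smallflower flatsedge, duck salad and barnyardgrass, treated at the 2-leaf stage.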

[13] = tested on: smallflower flatsedge (Cyperus difformis); assay: Test C flooded paddy test; details: for Flatsedge plant response rating: Flooded Paddy, scale 0 to 100, 0 no effect, 100 complete control; for Plant response rating, Flatsedge: flooded paddy test, scale 0 to 100 (0 no effect, 100 complete control)
How it was run: as §2

[14] = tested on: duck salad (Heteranthera limosa); assay: Test C flooded paddy test
How it was run: as §2

rice (Oryza saliva) [15] = assay: Test C flooded paddy test
How it was run: as §2

[16] = tested on: barnyardgrass (Echinochloa crus-galli); assay: Test B postemergence; details: 13 to 15 days
How it was run: as §1

[17] = tested on: giant foxtail (Setaria faberii); assay: Test B postemergence; details: 13 to 15 days
How it was run: as §1

wild oat (Avena fatua) = assay: Test B postemergence; details: 13 to 15 days
How it was run: as §1

[18] = tested on: morning glory (Ipomoea hederacea); assay: Test B postemergence; details: 13 to 15 days
How it was run: as §1

[19] = tested on: wheat (Triticum aestivum); assay: Test B postemergence; details: 13 to 15 days
How it was run: as §1

[20] = tested on: pigweed (Amaranthus retroflexus); assay: Test B postemergence; details: 13 to 15 days
How it was run: as §1

[21] = tested on: blackgrass (Alopecurus myosuroides); assay: Test B postemergence; details: 13 to 15 days
How it was run: as §1

[22] = tested on: Surinam grass (Brachiaria decumbens); assay: Test B postemergence; details: 13 to 15 days
How it was run: as §1

corn (Zea mays) [23] = assay: Test B postemergence; details: 13 to 15 days
How it was run: as §1

[24] = tested on: velvetleaf (Abutilon theophrasti); assay: Test B postemergence; details: 13 to 15 days
How it was run: as §1

[25] = tested on: cocklebur (Xanthium strumarium); assay: Test B postemergence; details: 13 to 15 days
How it was run: as §1

[26] = tested on: crabgrass (Digitaria sanguinalis); assay: Test B postemergence; details: 13 to 15 days
How it was run: as §1

[27] = tested on: lambsquarters (Chenopodium album); assay: Test B postemergence; details: 13 to 15 days
How it was run: as §1

[28] = tested on: barnyardgrass (Echinochloa crus-galli); assay: Test B flooded paddy test; details: Rate 1000 g/ha, scale of 0 to 100 where 0 is no effect and 100 is complete control, visually evaluated after 13 to 15 days
How it was run: (§3)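 Treatment: formulated chemical applied to flooded paddy plants at 2-leaf stage. Hold: greenhouse, 13–15 days. Scoring: visual comparison to controls, 0 (no effect) to 100 (complete control).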

[29] = tested on: smallflower flatsedge (Cyperus difformis); assay: Test B flooded paddy test; details: Rate 1000 g/ha, scale of 0 to 100 where 0 is no effect and 100 is complete control, visually evaluated after 13 to 15 days
How it was run: as §3

[30] = tested on: duck salad (Heteranthera limosa); assay: Test B flooded paddy test; details: Rate 1000 g/ha, scale of 0 to 100 where 0 is no effect and 100 is complete control, visually evaluated after 13 to 15 days
How it was run: as §3

rice (Oryza saliva) [31] = assay: Test B flooded paddy test; details: Rate 1000 g/ha, scale of 0 to 100 where 0 is no effect and 100 is complete control, visually evaluated after 13 to 15 days
How it was run: as §3

[32] = Flooded Paddy, Rate 500 g/ha, scale 0 to 100
[33] = Flooded Paddy, Rate 250 g/ha, scale 0 to 100, 0 no effect, 100 complete control
[34] = flooded paddy test, Rate 62 g/ha, scale 0 to 100 (0 no effect, 100 complete control)
[35] = flooded paddy test, Rate 125 g/ha, scale 0 to 100 (0 no effect, 100 complete control)
[36] = Rate 125 g/ha, scale 0 (no effect) to 100 (complete control)
[37] = Rate 500 g/ha, scale 0 to 100, 0 is no effect, 100 is complete control

Cc1cn(C2CCN(c3cccc(C(F)(F)F)c3)C2=O)nc1C(C)C (stereo not shown) [Compound 17]
Plant response rating, Barnyardgrass ([1]; Preemergence, Rate 500 g/ha): 0
Plant response rating, Barnyardgrass ([1]; preemergence, Rate 125 g/ha): 0
Plant response rating, Foxtail, Giant ([2]; Preemergence, Rate 500 g/ha): 0
Plant response rating, Foxtail, Giant ([2]; preemergence, Rate 125 g/ha): 0
Plant response rating, Morningglory [3]: 0
Plant response rating, Pigweed ([4]; Preemergence, Rate 500 g/ha): 0
Plant response rating, Pigweed ([4]; preemergence, Rate 125 g/ha): 0
Plant response rating, Surinam grass ([5]; Preemergence, Rate 500 g/ha): 0
Plant response rating, Surinam grass ([5]; preemergence, Rate 125 g/ha): 0
Plant response rating, Corn (corn (Zea mays) [6]; Preemergence, Rate 500 g/ha): 0
Plant response rating, Corn (corn (Zea mays) [6]; preemergence, Rate 125 g/ha): 0
Plant response rating, Velvetleaf [7]: 0
Plant response rating, Cocklebur [8]: 0
Plant response rating, Crabgrass ([9]; Preemergence, Rate 500 g/ha): 0
Plant response rating, Crabgrass ([9]; preemergence, Rate 125 g/ha): 0
Plant response rating, Rice (rice (Oryza saliva) [10]; Preemergence, Rate 500 g/ha): 0
Plant response rating, Rice (rice (Oryza saliva) [10]; preemergence, Rate 125 g/ha): 0
Plant response rating, Lambsquarters [11]: 0
Plant response rating, Barnyardgrass [12, 32]: 70
Barnyardgrass plant response rating [12, 33]: 0
Plant response rating, Barnyardgrass [12, 34]: 0
Plant response rating, Barnyardgrass [12, 35]: 0
Flatsedge plant response rating ([13]; Rate 250 g/ha): 80
Flatsedge plant response rating ([13]; Rate 500 g/ha): 80
Plant response rating, Flatsedge ([13]; Rate 62 g/ha): 20
Plant response rating, Flatsedge ([13]; Rate 125 g/ha): 70
Plant response rating, Ducksalad [14, 32]: 80
Ducksalad plant response rating [14, 33]: 80
Plant response rating, Ducksalad [14, 34]: 30
Plant response rating, Ducksalad [14, 35]: 70
Plant response rating, Rice (rice (Oryza saliva) [15]; [32]): 0
Rice plant response rating (rice (Oryza saliva) [15]; [33]): 0
Plant response rating, Rice (rice (Oryza saliva) [15]; [34]): 0
Plant response rating, Rice (rice (Oryza saliva) [15]; [35]): 0
Plant response rating, Barnyardgrass [16, 36]: 0
Plant response rating, Barnyardgrass [16, 37]: 0
Plant response rating, Foxtail, Giant [17, 36]: 0
Plant response rating, Foxtail, Giant [17, 37]: 0
Plant response rating, Wild Oat (wild oat (Avena fatua); [36]): 0
Plant response rating, Wild Oat (wild oat (Avena fatua); [37]): 0
Plant response rating, Morningglory [18, 36]: 0
Plant response rating, Morningglory [18, 37]: 0
Plant response rating, Wheat [19, 36]: 0
Plant response rating, Wheat [19, 37]: 0
Plant response rating, Pigweed [20, 36]: 0
Plant response rating, Pigweed [20, 37]: 0
Plant response rating, Blackgrass [21, 36]: 0
Plant response rating, Blackgrass [21, 37]: 0
Plant response rating, Surinam grass [22, 36]: 0
Plant response rating, Surinam grass [22, 37]: 0
Plant response rating, Corn (corn (Zea mays) [23]; [36]): 0
Plant response rating, Corn (corn (Zea mays) [23]; [37]): 0
Plant response rating, Velvetleaf [24, 36]: 0
Plant response rating, Velvetleaf [24, 37]: 0
Plant response rating, Cocklebur [25, 36]: 0
Plant response rating, Cocklebur [25, 37]: 0
Plant response rating, Crabgrass [26, 36]: 0
Plant response rating, Crabgrass [26, 37]: 0
Plant response rating, Lambsquarters [27, 36]: 80
Plant response rating, Lambsquarters [27, 37]: 80
Plant response rating, Barnyardgrass [28]: 80
Plant response rating, Flatsedge [29]: 90
Plant response rating, Ducksalad [30]: 60
Plant response rating, Rice (rice (Oryza saliva) [31]): 40
